According to patent US11028137B2, “Mutant islet amyloid polypeptides with improved solubility and methods for using the same” (priority 2017, dated 2021):
Where a SMILES comes first, the peptide text is derived from it.

Tests used:
[1] = Thioflavin-T fluorescence assay of amyloid formation kinetics; type: physicochemical; conditions: 16 μM peptide, 10 mM PBS pH 7.4, 25° C., no stirring; for amyloid formation monitored by thioflavin-T fluorescence: 1 week and 6 week incubations
Experimental: Sample Preparation. Each peptide was dissolved into 100% hexafluoroisoproponal (HFIP) to make a 0.5 mM stock solution. Stock solutions were filtered using […] Acrodisc syringe filter with a GHP membrane and the required amount of peptide was lyophilized overnight to remove HFIP. Dry peptide was dissolved into the appropriate buffer for the fluorescence assays. Fluorescence Assays. Thioflavin-T binding assays, conducted without HFIP or stirring at 25° C., were utilized to monitor amyloid formation kinetics. Fluorescence measurements were performed using a Spectramax Gemini EM plate reader. Corning 96-well non-binding surface black plates with lids were used and were sealed with polyethylene sealing tape. Samples were prepared by dissolving dry peptide into 10 mM PBS buffer (pH 7.4) and 32 μM thioflavin-T solution immediately before the measurement. Thioflavin-T fluorescence was measured with 450 nm excitation and emission at 485 nm was monitored. The final concentrations were 16 μM peptides. After creating the mutant-hIAPP polypeptides of the present disclosure, applicants tested the propensity of the different analogs to form amyloid at pH 7.4 using thioflavin-T fluorescence assays (FIGS. 2A-D) and TEM (FIGS. 3A-E). […] Amyloid formation follows a sigmoidal time course consisting of a lag phase in which few, if any, fibrils are formed, followed by a growth phase and a saturation phase in which amyloid fibrils are in equilibrium with soluble peptide.

[2] = Transmission electron microscopy (TEM) of amyloid aggregates; type: physicochemical; conditions: for amyloid aggregates in TEM images: after 7 days of incubation, end of kinetic experiment
Experimental: Transmission Electron Microscopy (TEM). TEM images were recorded using an FEI Bio TwinG^2 Transmission Electron Microscope at the central microscopy center at Stony Brook University. 15 μL aliquots of the samples used for fluorescence assays were removed at the end of each kinetic experiment, blotted on a carbon formvar-coated 300-mesh copper grid for 1 min and then negatively stained with saturated uranyl acetate for 1 min. Images were taken at a 68,000× magnification and 100 nm under focus. Mutant-hIAPP polypeptides of the present disclosure were further analyzed using TEM. […] In contrast, no amyloid fibrils were formed after a 1 week (FIGS. 3B-E, left) or 6 week (FIGS. 3B-E, right) culture with the any of the mutant-hIAPP analogs tested.

[3] = molecular target: T1, human amylin receptor (hAMY1(a)) (Homo sapiens, UniProt O60894+P30988); experiment: cAMP production (LANCE cAMP assay) in transfected Cos-7 cells; type: cell-based; conditions: cAMP production, Cos-7 cells expressing hAMY1(a); mean ± spread; read-out: Human Amylin1(a) receptor binding data pEC50 (converted)
T1 construct: expressed in transfected cells; host or cells: Cos-7 cells, transient transfection with PEI, pcDNA3.1 vectors
T1 sequence (O60894 27-148 partner, one chain of several): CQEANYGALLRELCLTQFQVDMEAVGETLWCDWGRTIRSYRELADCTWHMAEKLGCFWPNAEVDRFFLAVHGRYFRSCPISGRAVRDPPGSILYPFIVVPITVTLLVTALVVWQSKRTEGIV
Experimental: (§1) Cell Culture and Transfection. Cos-7 cells were cultured and transfected for receptor activity assays as previously described in Bailey, R. J., and Hay, D. L. Peptides (2006) 27, pp. 1367-1375, the entire contents of which is incorporated herein by reference. Specifically, cells were cultured in Dulbucco's modified eagle medium (DMEM) with 8% heat-inactivated fetal bovine serum (FBS) and kept in a 37° C. humidified 95% air/5% CO2 incubator. Cells were plated at a density of 18,000-20,000 cells/well (depending on cell passage) in 96-well culture plate and returned to the incubator for approximately 18-24 hours. Transient transfections were carried out using polyethyleneimine (PEI) as described previously and maintained at 37° C. in a humidified 95% air/5% CO2 incubator for 36-48 hours. All DNA constructs used in this these were in pcDNA3.1 vectors.
(§2) cAMP Assay: Measurement of intracellular cAMP was achieved using a time-resolved fluorescent resonance energy transfer assay (LANCE cAMP assay, PerkinElmer), similar to the previously described Alphascreen assay as described in Gingell, J. J., et al. Peptides (2010) 31, pp. 1400-1404, with the following changes. Following stimulation with peptide agonist, cAMP assay media from the wells was thoroughly aspirated and 50 μl of ice-cold absolute ethanol added to each well. Plates were then placed in a −30° C. freezer for 10 minutes or overnight prior to assay, then removed and allowed to air dry in a fume hood for 1-2 hours. After ethanol evaporated from the plates, 50 μl of LANCE detection buffer (lysis buffer, 0.35% Triton X-100, 50 mM HEPES and 10 mM calcium chloride in ddH2O, pH 7.4) was added per well and left on a plate shaker for 10-15 minutes at room temperature. Meanwhile, a cAMP standard curve was generated using LANCE detection buffer and a serially diluted cAMP standard (50 μM) ranging from 1 μM to 10 pM. The serially diluted cAMP standards (5 μl) and cell lysates (5 μl) were transferred into 384-well opti-plates and sealed with a Sealplate®-A-384-well microplate adhesive film and briefly centrifuged (10 seconds, 500 rpm, 23° C.). A 1:200 dilution of LANCE assay Alexa Fluor® 647 anti-cAMP antibody was prepared in detection buffer and 5 μl added to each well. Plates were sealed and briefly centrifuged again (10 seconds, 500 rpm, 23° C.) and left to incubate, sealed for 30 minutes at room temperature. During this incubation, detection mix was made up consisting of detection buffer, Europium-W8044 labelled streptavidin (1:4500) and biotin-cAMP (1:1500). After 30 minutes incubation, 10 μl of detection mix was added to each well, plates were centrifuged (30 seconds, 500 rpm, 23° C.), sealed and left to incubate for 1 hour at room temperature. Plates were read after an overnight incubation on an Envision plate reader. A standard curve was included in each experiment to ensure accurate quantification of cAMP.
(§3) Data Analysis for Receptor Assays: Data were derived from independent experiments for statistical analysis and all experiments were performed and replicated. Quantification of cAMP was obtained from a standard curve included in each experiment and plotted using the software GraphPad Prism 6.0 (GraphPad Software Inc, San Diego, Calif., USA) with a non-linear regression 3-parameter logistic equation with a Hill Slope of 1 to determine the pEC50. The pEC50 values from the fits were combined from different experimental days and statistically tested for difference from the WT peptide using the Student's t-test with statistical significance defined as * p<0.05, ** p<0.01, *** p<0.001. Due to variability in amount of cAMP produced between experimental days, data were normalized to the control peptide for each experiment to obtain Emax values. For each analogue, data were normalized to the maximum (Emax) and minimum (Emin) responses of h-amylin. […]

[4] = molecular target: T2, human calcitonin receptor (hCT(a)) (Homo sapiens, UniProt P30988); experiment: as above; type: cell-based; conditions: cAMP production, Cos-7 cells expressing hCT(a); mean ± spread; read-out: Human calcitonin receptor binding data pEC50 (converted)
T2 construct: expressed in transfected cells; host or cells: Cos-7 cells, transient transfection with PEI, pcDNA3.1 vectors
T2 sequence (P30988 25-474): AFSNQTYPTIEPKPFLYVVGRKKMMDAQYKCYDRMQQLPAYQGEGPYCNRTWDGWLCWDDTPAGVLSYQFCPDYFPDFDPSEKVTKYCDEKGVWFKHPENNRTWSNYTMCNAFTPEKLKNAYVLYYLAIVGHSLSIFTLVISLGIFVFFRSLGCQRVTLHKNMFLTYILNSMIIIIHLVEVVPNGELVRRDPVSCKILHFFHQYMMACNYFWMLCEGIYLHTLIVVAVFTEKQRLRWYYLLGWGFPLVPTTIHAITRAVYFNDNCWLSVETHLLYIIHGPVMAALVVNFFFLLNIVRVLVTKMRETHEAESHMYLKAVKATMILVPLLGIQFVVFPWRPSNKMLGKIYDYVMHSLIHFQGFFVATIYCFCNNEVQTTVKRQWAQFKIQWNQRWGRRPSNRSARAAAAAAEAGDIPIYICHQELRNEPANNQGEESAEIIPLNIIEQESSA
Experimental: as §1, §2, §3

[5] = pH 7.4
Experimental: Dry peptides were dissolved into 10 mM PBS buffer at pH 7.4 at different initial concentrations, and were incubated for 7 days at 25° C. without stirring. Each sample was then centrifuged using a Beckman Coulter Microfuge 22R Centrifuge at 24° C. for 20 min. The relative centrifugal force used was 1.75×10^4 g. Solubility of each sample was approximated by measuring the absorbance of the corresponding supernatant at 280 nm measured using a Beckman Coulter DU 730 UV/Vis Spectrophotometer.
Each peptide tested was incubated in 10 mM PBS buffer at pH 7.4 for 7 days at three different concentrations (100 μM, 500 μM and 1 mM) and the solution was then centrifuged. The apparent solubility was represented by the absorbance of the supernatant of each sample measured at 280 nm. The extinction coefficients of all polypeptides are very similar at 280 nm since they all contain the same aromatic residues and each contains a disulfide bond. […] A peptide which is soluble at 1 mM and above will show a linear dependence of absorbance on initial concentration. A peptide which is less soluble will deviate from linearity. The peptides were centrifuged after 7 days and their apparent solubility measured by measuring the absorbance at 280 nm of the supernatant of each solution. The apparent concentration refers to the concentration which would be obtained if all of the peptide dissolved. The absorbance of the supernatant is directly proportion to the amount of peptide in solution.

[6] = pH 7
Experimental: 100 μL each solution was obtained immediately following dissolution with Novolin-N® and was centrifuged using a Beckman Coulter Microfuge (22R Centrifuge) at 24° C. for 20 minutes. The relative centrifugal force used was 1.75×104 g. Aliquots of each sample were immediately frozen and lyophilized. The remaining portion of each sample was not centrifuged and were incubated at 25° C. without stirring. Samples were collected again following the same procedures after 1 day, 7 days and 30 days. Dry samples were redissolved in 4:1 HPLC buffer mix (4A:1B, below) and immediately injected for liquid chromatography-mass spectroscopy (LC-MS) measurements. The HPLC buffers were (A) H2O (0.1% acetic acid and 0.02% TFA) and (B) CH3CN (0.1% acetic acid and 0.02% TFA). Solubility of each co-formulated sample was determined by measuring the absorbance from the liquid chromatogram traces at 215±8 nm and at 277±8 nm at each time point tested. points (0 hours, 24 hours, 7 days and 30 days post-formulation).

Structure (SMILES) | amyloid formation monitored by thioflavin-T fluorescence [1] | amyloid aggregates in TEM images [2] | EC50 [3] | EC50 [4] | solubility at neutral pH (absorbance of supernatant at 280 nm) [5] | solubility co-formulated with Novolin-N (absorbance at 215 nm and 277 nm, LC-MS) [6] | time at which amyloid formation reaches the saturation phase ([1]; 32 μM thioflavin-T) | amyloid fibrils in TEM images ([2]; after 1 week and 6 week time periods)
CC[C@H](C)[C@H](NC(=O)[C@H](C)NC(=O)CNC(=O)[C@H](Cc1ccccc1)NC(=O)[C@H](CC(N)=O)NC(=O)[C@H](CCCCN)NC(=O)[C@H](CO)NC(=O)[C@H](CO)NC(=O)[C@H](Cc1c[nH]cn1)NC(=O)[C@@H](NC(=O)[C@H](CC(C)C)NC(=O)[C@H](Cc1ccccc1)NC(=O)[C@H](CC(N)=O)NC(=O)[C@H](C)NC(=O)[C@H](CC(C)C)NC(=O)[C@H](CCCNC(=N)N)NC(=O)[C@H](CCC(N)=O)NC(=O)[C@@H](NC(=O)[C@H](C)NC(=O)[C@@H]1CSSC[C@H](NC(=O)[C@@H](N)CCCCN)C(=O)N[C@@H](CC(N)=O)C(=O)N[C@@H]([C@@H](C)O)C(=O)N[C@@H](C)C(=O)N[C@@H]([C@@H](C)O)C(=O)N1)[C@@H](C)O)C(C)C)C(=O)N[C@@H](CC(C)C)C(=O)N[C@@H](CO)C(=O)N[C@@H](CO)C(=O)N[C@H](C(=O)N[C@@H](CC(N)=O)C(=O)N[C@H](C(=O)NCC(=O)N[C@@H](CO)C(=O)N[C@@H](CCCCN)C(=O)N[C@H](C(=O)N[C@@H](Cc1ccc(O)cc1)C(N)=O)[C@@H](C)O)C(C)C)[C@@H](C)O [SEQ ID NO: 7] (HELM PEPTIDE1{K.C.N.T.A.T.C.A.T.Q.R.L.A.N.F.L.V.H.S.S.K.N.F.G.A.I.L.S.S.T.N.V.G.S.K.T.Y.[am]}$PEPTIDE1,PEPTIDE1,2:R3-7:R3$$$V2.0) | none of the mutant hIAPP polypeptides forms amyloid | no aggregates are observed | 0.741 nM | 2.4 nM | more substantially soluble than wild-type hIAPP | significantly higher absorbance when compared to both wild-type hIAPP and paramlintide |  | 
CC(C)C[C@H](NC(=O)[C@H](CCCNC(=N)N)NC(=O)[C@H](CCC(N)=O)NC(=O)[C@@H](NC(=O)[C@H](C)NC(=O)[C@@H]1CSSC[C@H](NC(=O)[C@@H](N)CCCCN)C(=O)N[C@@H](CC(N)=O)C(=O)N[C@@H]([C@@H](C)O)C(=O)N[C@@H](C)C(=O)N[C@@H]([C@@H](C)O)C(=O)N1)[C@@H](C)O)C(=O)N[C@@H](C)C(=O)N[C@@H](CC(N)=O)C(=O)N[C@@H](Cc1ccccc1)C(=O)N[C@@H](CC(C)C)C(=O)N[C@H](C(=O)N[C@@H](Cc1c[nH]cn1)C(=O)N[C@@H](CO)C(=O)N[C@@H](CO)C(=O)N[C@@H](CCCCN)C(=O)N[C@@H](CC(N)=O)C(=O)N[C@@H](Cc1ccccc1)C(=O)N1CCC[C@H]1C(=O)N[C@@H](C)C(=O)N1CCC[C@H]1C(=O)N[C@@H](CC(C)C)C(=O)N[C@@H](CO)C(=O)N[C@@H](CO)C(=O)N[C@H](C(=O)N[C@@H](CC(N)=O)C(=O)N[C@H](C(=O)NCC(=O)N[C@@H](CO)C(=O)N[C@@H](CCCCN)C(=O)N[C@H](C(=O)N[C@@H](Cc1ccc(O)cc1)C(N)=O)[C@@H](C)O)C(C)C)[C@@H](C)O)C(C)C [SEQ ID NO: 8] (HELM PEPTIDE1{K.C.N.T.A.T.C.A.T.Q.R.L.A.N.F.L.V.H.S.S.K.N.F.P.A.P.L.S.S.T.N.V.G.S.K.T.Y.[am]}$PEPTIDE1,PEPTIDE1,2:R3-7:R3$$$V2.0) | none of the mutant hIAPP polypeptides forms amyloid | no aggregates are observed | 1.78 nM | 10.7 nM | more substantially soluble than wild-type hIAPP | significantly higher absorbance when compared to both wild-type hIAPP and paramlintide |  | 
CC[C@H](C)[C@H](NC(=O)[C@H](C)NC(=O)CNC(=O)[C@H](Cc1ccccc1)NC(=O)[C@H](CC(N)=O)NC(=O)[C@H](CC(N)=O)NC(=O)[C@H](CO)NC(=O)[C@H](CO)NC(=O)[C@H](Cc1c[nH]cn1)NC(=O)[C@@H](NC(=O)[C@H](CC(C)C)NC(=O)[C@H](Cc1ccccc1)NC(=O)[C@H](CC(N)=O)NC(=O)[C@H](C)NC(=O)[C@H](CC(C)C)NC(=O)[C@H](CCCNC(=N)N)NC(=O)[C@H](CCC(N)=O)NC(=O)[C@@H](NC(=O)[C@H](C)NC(=O)[C@@H]1CSSC[C@H](NC(=O)[C@@H](N)CCCCN)C(=O)N[C@@H](CC(N)=O)C(=O)N[C@@H]([C@@H](C)O)C(=O)N[C@@H](C)C(=O)N[C@@H]([C@@H](C)O)C(=O)N1)[C@@H](C)O)C(C)C)C(=O)N[C@@H](CC(C)C)C(=O)N[C@@H](CO)C(=O)N[C@@H](CO)C(=O)N[C@H](C(=O)N[C@@H](CC(N)=O)C(=O)N[C@H](C(=O)NCC(=O)N[C@@H](CO)C(=O)N[C@@H](CC(N)=O)C(=O)N[C@H](C(=O)N[C@@H](Cc1ccc(O)cc1)C(N)=O)[C@@H](C)O)C(C)C)[C@@H](C)O [Wild-type hIAPP, reference compound] | forms significant amounts of amyloid | extensive amounts of amyloid fibers |  |  |  |  | ≤ 30 h | typical amyloid fibril morphology
